According to EP3072514A1, “Novel oral anticoagulants (NOACs) for preventing development and aggravation of atrial fibrillation” (Université Pierre et Marie Curie - Paris 6 (UPMC), priority 2015, dated 2016):

Tests used:
blood coagulation = assay: Thrombin time (TT) on blood collected by cardiac puncture at sacrifice of I/R rats; type: in vivo, Male OFA Sprague-dawley rats; settings: 25 mg/kg/day (12.5 mg/kg BID) by force-feeding; with reference to the mean value of sham animals
Excerpt: • Figure 1 is a combination of two graphs showing left atrium (LA) area after one month of treatment with DTI Dabigatran (A) or S35792 (B). Vehicle (V) is 60% H2O/40% PEG 300 for dabigatran and saline for S35972. Treatment of rats started just after thoracotomy without (Sham) or with occlusion of left coronary artery followed by reperfusion (I/R). […] Vehicle (V) is 60% H2O/40% PEG 300 for dabigatran and saline for S35972. Treatment of rats started just after thoracotomy without (Sham) or with occlusion of left coronary artery followed by reperfusion (I/R). Results are presented as mean +/- S.E.M. * P<0.05; ** P<0.001, *** P<0.001 vs Sham; #P<0.05 vs untreated I/R. • Figure 3 is a combination of two graphs showing thrombin time (TT), which reflects anticoagulant activity, and plasma concentrations of Dabigatran (A) and S35792 (B) in rats after throracotomy with occlusion of left coronary artery followed by reperfusion (I/R). Vehicle (V) is 60% H2O/40% PEG 300 for dabigatran and saline for S35972. […] DTI plasma levels are quantified using LC-MS/MS. TT are expressed as mean +/- S.E.M with reference to the mean value of sham animals that underwent thoracotomy only. *** P<0.001 vs untreated I/R. • Figure 4 is a combination of three graphs showing left atrium (LA) area (A) and diameter (B) and left ventricle end-diastolic (LVED) diameter (C) after two months of treatment with S35972. […] LA area was measured by bidimensional echocardiography. LA and LVED diameters were measured in time-motion mode. […] AF duration is measured as the time between the end of the electric stimulation and the return to sinusoidal rhythm. […] Expression of mRNA was measured with real-time qPCR. […] Expression of mRNA was measured with real-time qPCR. […] Expression of mRNA was measured with real-time qPCR. […] LA area was measured by bidimensional echocardiography. LVED and LA diameters were measured in time-motion mode. […] AF duration is measured as the time between the end of the electric stimulation and return to sinusoidal rhythm. […]

[1] = Plasma concentration by LC-MS/MS in I/R rats; design: species or system Male OFA Sprague-dawley rats; settings: rat, in vivo; 25 mg/kg/day (12.5 mg/kg BID) by force-feeding, 4 weeks; blood 90 minutes after last oral administration; ± SD
Excerpt: • Figure 1 is a combination of two graphs showing left atrium (LA) area after one month of treatment with DTI Dabigatran (A) or S35792 (B). Vehicle (V) is 60% H2O/40% PEG 300 for dabigatran and saline for S35972. Treatment of rats started just after thoracotomy without (Sham) or with occlusion of left coronary artery followed by reperfusion (I/R). Results are presented as mean +/- S.E.M, *P<0.05, **P<0.01 and *** P<0.001 vs Sham; ^##P<0.01 and ^###P<0.001 vs untreated I/R. • Figure 2 is a combination of graphs showing left ventricular end-diastolic (LVED) diameter and fractional shortening (FS) after one month of treatment with Dabigatran (A) or S35792 (B). Vehicle (V) is 60% H2O/40% PEG 300 for dabigatran and saline for S35972. Treatment of rats started just after thoracotomy without (Sham) or with occlusion of left coronary artery followed by reperfusion (I/R). Results are presented as mean +/- S.E.M. * P<0.05; ** P<0.001, *** P<0.001 vs Sham; #P<0.05 vs untreated I/R. • Figure 3 is a combination of two graphs showing thrombin time (TT), which reflects anticoagulant activity, and plasma concentrations of Dabigatran (A) and S35792 (B) in rats after throracotomy with occlusion of left coronary artery followed by reperfusion (I/R). Vehicle (V) is 60% H2O/40% PEG 300 for dabigatran and saline for S35972. […] DTI plasma levels are quantified using LC-MS/MS. TT are expressed as mean +/- S.E.M with reference to the mean value of sham animals that underwent thoracotomy only. *** P<0.001 vs untreated I/R. • Figure 4 is a combination of three graphs showing left atrium (LA) area (A) and diameter (B) and left ventricle end-diastolic (LVED) diameter (C) after two months of treatment with S35972. […] LA area was measured by bidimensional echocardiography. LA and LVED diameters were measured in time-motion mode. […] AF duration is measured as the time between the end of the electric stimulation and the return to sinusoidal rhythm. […] Expression of mRNA was measured with real-time qPCR. […] Expression of mRNA was measured with real-time qPCR. […]

Compound: [H]/N=C(/N)c1ccc(NCc2nc3cc(C(=O)N(CCC(=O)O)c4ccccn4)ccc3n2C)cc1 [dabigatran, reference compound]
- thrombin time increases by a factor (blood coagulation): 8
- concentration at 1.5 h [1]: 49.2 ± 19.3 ng/mL
